Laboratory results reported in US9040545B2, “Heterocyclyl pyrazolopyrimidine analogues as selective JAK inhibitors” (Cellzome Limited, priority 2010, dated 2015).
pIC50: −log10 of the molar value.

biological target: T1, JAK3 (Homo sapiens, UniProt P52333); test: Kinobeads assay, JAK3; assay type: binding; settings: mixed Molt4/Ramos lysate, read-out: Inhibition values (IC50) JAK3
T1 construct: endogenous in cells; host or cells: mixed Molt4/Ramos lysate (1:2)
T1 sequence (P52333 1-1124): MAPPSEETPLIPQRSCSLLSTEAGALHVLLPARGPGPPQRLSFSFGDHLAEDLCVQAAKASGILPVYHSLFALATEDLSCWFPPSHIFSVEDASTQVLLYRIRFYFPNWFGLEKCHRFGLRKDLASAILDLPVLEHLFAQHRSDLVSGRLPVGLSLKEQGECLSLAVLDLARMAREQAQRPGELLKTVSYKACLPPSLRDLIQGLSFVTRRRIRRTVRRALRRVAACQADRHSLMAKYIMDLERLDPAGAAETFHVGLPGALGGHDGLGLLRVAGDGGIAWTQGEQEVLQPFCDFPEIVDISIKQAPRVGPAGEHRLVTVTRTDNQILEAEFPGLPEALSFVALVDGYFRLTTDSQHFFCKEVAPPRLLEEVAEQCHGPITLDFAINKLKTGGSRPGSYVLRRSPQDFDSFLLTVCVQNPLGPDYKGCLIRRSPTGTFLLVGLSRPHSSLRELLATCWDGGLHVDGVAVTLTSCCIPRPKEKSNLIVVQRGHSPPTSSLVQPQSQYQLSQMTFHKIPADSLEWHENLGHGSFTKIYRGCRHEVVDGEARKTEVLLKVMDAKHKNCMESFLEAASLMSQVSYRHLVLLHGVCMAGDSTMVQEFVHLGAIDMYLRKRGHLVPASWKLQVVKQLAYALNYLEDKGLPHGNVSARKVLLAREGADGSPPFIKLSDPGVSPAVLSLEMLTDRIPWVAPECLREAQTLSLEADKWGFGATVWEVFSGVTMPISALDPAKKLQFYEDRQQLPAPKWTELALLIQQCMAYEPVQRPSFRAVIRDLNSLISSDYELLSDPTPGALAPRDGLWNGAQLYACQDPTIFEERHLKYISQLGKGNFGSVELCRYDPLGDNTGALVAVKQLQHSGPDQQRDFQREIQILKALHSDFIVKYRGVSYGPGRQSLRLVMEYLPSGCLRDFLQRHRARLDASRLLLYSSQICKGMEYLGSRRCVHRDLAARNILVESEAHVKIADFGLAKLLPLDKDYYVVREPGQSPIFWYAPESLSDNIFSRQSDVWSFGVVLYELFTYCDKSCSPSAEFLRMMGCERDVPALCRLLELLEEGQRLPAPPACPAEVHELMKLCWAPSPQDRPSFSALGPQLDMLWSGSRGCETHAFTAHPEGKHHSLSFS
Protocol: The compounds of the present invention as described in the previous examples were tested in a Kinobeads™ assay as described for ZAP-70 (WO-A 2007/137867). Briefly, test compounds (at various concentrations) and the affinity matrix with the immobilized aminopyrido-pyrimidine ligand 24 were added to cell lysate aliquots and allowed to bind to the proteins in the lysate sample. After the incubation time the beads with captured proteins were separated from the lysate. Bound proteins were then eluted and the presence of JAK2 and JAK3 was detected and quantified using specific antibodies in a dot blot procedure and the Odyssey infrared detection system. Dose response curves for individual kinases were generated and IC50 values calculated. Kinobeads™ assays for ZAP-70 (WO-A 2007/137867) and for kinase selectivity profiling (WO-A 2006/134056) have been previously described.
The affinity matrix was washed two times with 15 mL of 1×DP buffer containing 0.2% NP40 (IGEPAL® CA-630, Sigma, #I3021) and then resuspended in 1×DP buffer containing 0.2% NP40 (3% beads slurry).
5×DP buffer 250 mM Tris-HCl pH 7.4, 25% Glycerol, 7.5 mM MgCl2, 750 mM NaCl, 5 mM Na3VO4; filter the 5×DP buffer through a 0.22 μm filter and store in aliquots at −80° C. The 5×DP buffer is diluted with H2O to 1×DP buffer containing 1 mM DTT and 25 mM NaF.
Stock solutions of test compounds were prepared in DMSO. In a 96 well plate 30 μL solution of diluted test compounds at 5 mM in DMSO were prepared. Starting with this solution a 1:3 dilution series (9 steps) was prepared. For control experiments (no test compound) a buffer containing 2% DMSO was used.
Molt4 cells (ATCC catalogue number CRL-1582) and Ramos cells (ATCC catalogue number CRL-1596) were grown in 1 L Spinner flasks (Integra Biosciences, #182101) in suspension in RPMI 1640 medium (Invitrogen, #21875-034) supplemented with 10% Fetal Bovine Serum (Invitrogen) at a density between 0.15×106 and 1.2×10^6 cells/mL. Cells were harvested by centrifugation, washed once with 1×PBS buffer (Invitrogen, #14190-094) and cell pellets were frozen in liquid nitrogen and subsequently stored at −80° C. Cells were homogenized in a Potter S homogenizer in lysis buffer: 50 mM Tris-HCl, 0.8% NP40, 5% glycerol, 150 mM NaCl, 1.5 mM MgCl2, 25 mM NaF, 1 mM sodium vanadate, 1 mM DTT, pH 7.5. One complete EDTA-free tablet (protease inhibitor cocktail, Roche Diagnostics, 1873580) per 25 mL buffer was added. The material was dounced 10 times using a mechanized POTTER S, transferred to 50 mL falcon tubes, incubated for 30 minutes on ice and spun down for 10 minutes at 20,000 g at 4° C. (10,000 rpm in Sorvall SLA600, precooled). The supernatant was transferred to an ultracentrifuge (UZ)-polycarbonate tube (Beckmann, 355654) and spun for 1 hour at 100,000 g at 4° C. (33.500 rpm in Ti50.2, precooled). The supernatant was transferred again to a fresh 50 mL falcon tube, the protein concentration was determined by a Bradford assay (BioRad) and samples containing 50 mg of protein per aliquot were prepared. The samples were immediately used for experiments or frozen in liquid nitrogen and stored frozen at −80° C.
Cell lysate (approximately 50 mg protein per plate) was thawed in a water bath at room temperature and then stored on ice. To the thawed cell lysate 1×DP 0.8% NP40 buffer containing protease inhibitors (1 tablet for 25 mL buffer; EDTA-free protease inhibitor cocktail; Roche Diagnostics 1873580) was added in order to reach a final protein concentration of 10 mg/mL total protein. The diluted cell lysate was stored on ice. Mixed Molt4/Ramos lysate was prepared by combining one volume of Molt4 lysate and two volumes of Ramos lysate (ratio 1:2).
To a 96 well filter plate (Multiscreen HTS, BV Filter Plates, Millipore #MSBVN1250) were added per well: 100 μL affinity matrix (3% beads slurry), 3 μL of compound solution, and 50 μL of diluted lysate. […]

`C[C@@H]1COCCN1c1cccc(Cn2ncc3cnc(Nc4cnn(C)c4)nc32)n1` [Example 1, (R)—N-(1-Methyl-1H-pyrazol-4-yl)-1-((6-(3-methylmorpholino)pyridin-2-yl)methyl)-1H-pyrazolo[3,4-d]pyrimidin-6-amine] and `Cn1cc(Nc2ncc3cnn(Cc4cccc(N5CCOCC5)n4)c3n2)cn1` [Example 3, N-(1-Methyl-1H-pyrazol-4-yl)-1-((6-morpholinopyridin-2-yl)methyl)-1H-pyrazolo[3,4-d]pyrimidin-6-amine] cannot be ordered by pIC50: > 7.00 for the first, > 7.00 for the second.

`Cn1cc(Nc2ncc3cnn(Cc4cccc(N5CCOCC5)c4)c3n2)cn1` [Example 2, N-(1-Methyl-1H-pyrazol-4-yl)-1-(3-morpholinobenzyl)-1H-pyrazolo[3,4-d]pyrimidin-6-amine] and `OCCn1cc(Nc2ncc3cnn(Cc4cccc(N5CCOCC5)c4)c3n2)cn1` [Example 5, 2-(4-((1-(3-Morpholinobenzyl)-1H-pyrazolo[3,4-d]pyrimidin-6-yl)amino)-1H-pyrazol-1-yl)ethanol] cannot be ordered by pIC50: > 7.00 for the first, > 7.00 for the second.

`CN(C)CCCn1cc(Nc2ncc3cnn(Cc4cccc(N5CCOCC5)c4)c3n2)cn1` [Example 4, N-(1-(3-(Dimethylamino)propyl)-1H-pyrazol-4-yl)-1-(3-morpholinobenzyl)-1H-pyrazolo[3,4-d]pyrimidin-6-amine] and `OCCCn1cc(Nc2ncc3cnn(Cc4cccc(N5CCOCC5)c4)c3n2)cn1` [Example 18, 3-(4-((1-(3-Morpholinobenzyl)-1H-pyrazolo[3,4-d]pyrimidin-6-yl)amino)-1H-pyrazol-1-yl)propan-1-ol] cannot be ordered by pIC50: > 7.00 for the first, > 7.00 for the second.

`Cn1cc(Nc2ncc3cnn(Cc4cccc(C(=O)N5CCOCC5)c4)c3n2)cn1` [Example 6, (3-((6-((1-Methyl-1H-pyrazol-4-yl)amino)-1H-pyrazolo[3,4-d]pyrimidin-1-yl)methyl)phenyl)(morpholino)methanone] and `Cn1cc(Nc2ncc3cnn(Cc4cccc(CN5CCOCC5)c4)c3n2)cn1` [Example 7, N-(1-Methyl-1H-pyrazol-4-yl)-1-(3-(morpholinomethyl)benzyl)-1H-pyrazolo[3,4-d]pyrimidin-6-amine] cannot be ordered by pIC50: > 7.00 for the first, > 7.00 for the second.

First: Cn1cc(Nc2ncc3cnn(Cc4cccc(N5CCCCC5)c4)c3n2)cn1 [Example 8, N-(1-Methyl-1H-pyrazol-4-yl)-1-(3-(piperidin-1-yl)benzyl)-1H-pyrazolo[3,4-d]pyrimidin-6-amine]
Second: CN1CCN(c2cccc(Cn3ncc4cnc(Nc5cnn(C)c5)nc43)c2)CC1 [Example 10, N-(1-Methyl-1H-pyrazol-4-yl)-1-(3-(4-methylpiperazin-1-yl)benzyl)-1H-pyrazolo[3,4-d]pyrimidin-6-amine]
The pIC50 of the first is lower: 6.00 to 7.00 for the first, > 7.00 for the second.

First: Cn1cc(Nc2ncc3cnn(Cc4cccc(C5CCOCC5)c4)c3n2)cn1 [Example 9, N-(1-Methyl-1H-pyrazol-4-yl)-1-(3-(tetrahydro-2H-pyran-4-yl)benzyl)-1H-pyrazolo[3,4-d]pyrimidin-6-amine]
Second: Cn1cc(Nc2ncc3cnn(Cc4cccc(N5CCC(F)(F)CC5)c4)c3n2)cn1 [Example 19, 1-(3-(4,4-Difluoropiperidin-1-yl)benzyl)-N-(1-methyl-1H-pyrazol-4-yl)-1H-pyrazolo[3,4-d]pyrimidin-6-amine]
The pIC50 of the first is higher: > 7.00 for the first, 6.00 to 7.00 for the second. The first is the more potent here.

`Cc1c(Cn2ncc3cnc(Nc4cnn(C)c4)nc32)cccc1N1CCOCC1` [Example 11, N-(1-Methyl-1H-pyrazol-4-yl)-1-(2-methyl-3-morpholinobenzyl)-1H-pyrazolo[3,4-d]pyrimidin-6-amine] and `Cn1cc(Nc2ncc3cnn(Cc4cccc(N5CCOCC5)c4F)c3n2)cn1` [Example 21, 1-(2-Fluoro-3-morpholinobenzyl)-N-(1-methyl-1H-pyrazol-4-yl)-1H-pyrazolo[3,4-d]pyrimidin-6-amine] cannot be ordered by pIC50: > 7.00 for the first, > 7.00 for the second.

`CNC(=O)Cn1cc(Nc2ncc3cnn(Cc4cccc(N5CCOCC5)c4)c3n2)cn1` [Example 12, N-Methyl-2-(4-((1-(3-morpholinobenzyl)-1H-pyrazolo[3,4-d]pyrimidin-6-yl)amino)-1H-pyrazol-1-yl)acetamide] and `NC(=O)CCn1cc(Nc2ncc3cnn(Cc4cccc(N5CCOCC5)c4)c3n2)cn1` [Example 14, 3-(4-((1-(3-Morpholinobenzyl)-1H-pyrazolo[3,4-d]pyrimidin-6-yl)amino)-1H-pyrazol-1-yl)propanamide] cannot be ordered by pIC50: > 7.00 for the first, > 7.00 for the second.

Compared with `CCOC(=O)C1CCCN(c2cccc(Cn3ncc4cnc(Nc5cnn(C)c5)nc43)c2)C1` (stereo not drawn) [Example 13, Ethyl 1-(3-((6-((1-methyl-1H-pyrazol-4-yl)amino)-1H-pyrazolo[3,4-d]pyrimidin-1-yl)methyl)phenyl)piperidine-3-carboxylate], `CN(C)C(=O)CCn1cc(Nc2ncc3cnn(Cc4cccc(N5CCOCC5)c4)c3n2)cn1` [Example 16, N,N-Dimethyl-3-(4-((1-(3-morpholinobenzyl)-1H-pyrazolo[3,4-d]pyrimidin-6-yl)amino)-1H-pyrazol-1-yl)propanamide] is higher in pIC50: 6.00 to 7.00 for the first, > 7.00 for the second. The second is the more potent here.

Compared with `Cn1cc(Nc2ncc3cnn(Cc4cc(N5CCOCC5)ccc4F)c3n2)cn1` [Example 15, 1-(2-Fluoro-5-morpholinobenzyl)-N-(1-methyl-1H-pyrazol-4-yl)-1H-pyrazolo[3,4-d]pyrimidin-6-amine], `Cn1cc(Nc2ncc3cnn(Cc4c(F)c(F)cc(N5CCOCC5)c4F)c3n2)cn1` [Example 17, N-(1-Methyl-1H-pyrazol-4-yl)-1-(2,3,6-trifluoro-5-morpholinobenzyl)-1H-pyrazolo[3,4-d]pyrimidin-6-amine] is higher in pIC50: 6.00 to 7.00 for the first, > 7.00 for the second. The second is the more potent here.

`O=C(CCn1cc(Nc2ncc3cnn(Cc4cccc(N5CCOCC5)c4)c3n2)cn1)N1CCCCC1` [Example 20, 3-(4-((1-(3-Morpholinobenzyl)-1H-pyrazolo[3,4-d]pyrimidin-6-yl)amino)-1H-pyrazol-1-yl)-1-(piperidin-1-yl)propan-1-one] was tested, and the pIC50 was > 7.00.
